Reference: patent US7078059B2, “Treatment of bone diseases” (Shire Holdings AG, priority 2000, dated 2006)
Several values for one entry are separate records, joined by “and”; a condition that tells them apart may be missing. Equal entries are not always repeated. Entries after “also recorded” stand apart in the source; their conditions may differ.

Legend:
[1] = system: osteoclasts cultured on bone slices; test: In vitro bone resorption assay (osteoclasts on bovine bone slices, CrossLaps); assay type: cell-based, rat; conditions: for Bone resorption: significance of activation/inhibition vs baseline; for Effect on bone resorption / bone resorbing activity of mature osteoclasts, in words / Relative medium CrossLaps amounts per osteoclast, Mean ± SD / Relative medium CrossLaps amounts per osteoclasts, Mean ± SD / Relative medium CrossLaps amounts per osteoclasts, replicates 1-6 / Combined results on bone resorption (relative medium CrossLaps per osteoclast), Mean ± SD: LA number = ng/ml lanthanum; for Effect on bone resorption / bone resorbing activity of mature osteoclasts, in words: lanthanum (III) ion = any of the concentrations tested (100-15000 ng/ml), bafilomycin Al 10 nM; for Relative medium CrossLaps amounts per osteoclast, replicates 1-6 / Relative medium CrossLaps amounts per osteoclast, Mean ± SD: first bone resorption assay; for Relative medium CrossLaps amounts per osteoclast, replicates 1-6 / Relative medium CrossLaps amounts per osteoclast, Mean ± SD / Relative medium CrossLaps amounts per osteoclasts, Mean ± SD / Relative medium CrossLaps amounts per osteoclasts, replicates 1-6: relative to mean of baseline group, 72 hours; for Relative medium CrossLaps amounts per osteoclast, replicates 1-6: LA number = ng/ml lanthanum in culture medium; for Relative medium CrossLaps amounts per osteoclast, replicates 1-6 / Relative medium CrossLaps amounts per osteoclast, Mean ± SD / Relative medium CrossLaps amounts per osteoclasts, Mean ± SD / Relative medium CrossLaps amounts per osteoclasts, replicates 1-6 / Combined results on bone resorption (relative medium CrossLaps per osteoclast), Mean ± SD: Control = Baseline+10 nM bafilomycin Al; for Relative medium CrossLaps amounts per osteoclasts, Mean ± SD / Relative medium CrossLaps amounts per osteoclasts, replicates 1-6: second bone resorption assay; for Combined results on bone resorption (relative medium CrossLaps per osteoclast), Mean ± SD: tables 1 and 2 combined, number 12
Excerpt: The method of osteoclast culture on bone slices was originally described by Boyde et al. (1984) and by Chambers et al. (1984). For cell culture, we used a method slightly modified from the original methods (Lakkakorpi et al. 1989, Lakkakorpi and Väänänen, 1991). The rate of bone resorption in the cultures was originally determined by counting the number of resorption pits on each bone or dentine slice using a microscope with phase contrast objectives (Sundquist et al. 1990). Later, the pits were visualized using Wheat Germ Agglutinin lectin that specifically binds to the resorbed area in bone (Selander et al. 1994), making it possible to quantify the total resorbed area using a microscope and computer-assisted image analysis system (Laitala and Väänänen 1994, Hentunen et al. 1995). We used a commercially available method (CrossLaps for cultures, Osteometer Biotech, Herlev, Denmark) to detect the amount of collagen cross-links released into the culture medium as an index of the bone resorption rate (Bagger et al., 1999).
The study protocol uses a method where osteoclasts are cultured on bone slices and allowed to resorb bone. The system is ideal for determining the effect of drug candidates on the bone resorbing activity of osteoclasts. Drug candidates are added into the cell cultures at the beginning of the culture period, and the osteoclasts allowed to resorb bone for 3 days. The amount of bone resorbed during the culture period is determined and compared to the amount of bone resorbed in control cultures (those cultured in the absence of drug candidates).
Transverse 0.1 mm thick slices of cortical bone were cut from the diaphysis of fresh bovine femurs (Atria Slaughterhouse, Oulu, Finland) using a low-speed diamond saw, cleaned by ultrasonication in multiple changes of sterile distilled water, and stored at 4° C. before use. Long bones were removed from 1-day-old rat pups killed by decapitation. […] The resulting suspension of dispersed cells and bone fragments was agitated using a plastic pipette. Larger fragments were allowed to sediment for a few seconds and the supernatant was seeded onto the bone slices pre-wetted in the medium. After a settling period of 30 minutes at 37° C., the bone slices were washed by dipping in fresh medium, and then transferred to wells in 24-well culture dishes containing osteoclast culture medium. The bone slices were incubated in a humidified atmosphere of 95% air and 5% carbon dioxide at 37° C. for 72 hours.
After the culture period, the amount of bone resorption was determined by measuring the amount of collagen cross-links released into the culture medium using a commercial kit (CrossLaps for cultures, Osteometer Biotech) according to the manufacturer s instructions. The number of osteoclasts in each culture was determined by microscopic counting of the amount of TRAP-positive multinuclear cells, and the results are given as the number of collagen cross-links released per one osteoclast.
In the bone resorption assay, the amount of medium CrossLaps (nM) released into the culture medium was determined and the number of osteoclasts in the corresponding cultures calculated. The medium CrossLaps amounts were divided with the osteoclast numbers in the corresponding cultures, and the results are given on Table 1 as relative medium CrossLaps amounts per osteoclasts. The relative values were obtained by dividing each individual value with the mean value of the baseline group.

mature osteoblasts = test: In vitro bone formation assay (calcium deposition into bone nodules); assay type: cell-based, mouse; conditions: for Bone formation: significance of activation/inhibition vs baseline; for Effect on bone formation activity of mature osteoblasts, in words / Calcium deposition, Mean ± SD / Calcium deposition, replicates 1-6 / Calcium deposition, replicates 1-4 / Calcium deposition, replicates 1-8 / Combined results on bone formation activity of mature osteoblasts (calcium released), Mean ± SD: LA number = ng/ml lanthanum; for Effect on bone formation activity of mature osteoblasts, in words: lanthanum (III) / lanthanum (III) ion = all concentrations tested, 100 to 15,000 ng/ml, 17-estradiol 10^−10M; for Calcium deposition, Mean ± SD / Calcium deposition, replicates 1-6 / Calcium deposition, replicates 1-4 / Calcium deposition, replicates 1-8: calcium released from bone nodules after HCl extraction; for Calcium deposition, Mean ± SD / Calcium deposition, replicates 1-6 / Calcium deposition, replicates 1-4 / Calcium deposition, replicates 1-8 / Combined results on bone formation activity of mature osteoblasts (calcium released), Mean ± SD: Control = Baseline+10^−10M 17β-estradiol; for Combined results on bone formation activity of mature osteoblasts (calcium released), Mean ± SD: tables 13 and 14 combined, number 14
Method: The activity of mature osteoblasts can be determined by quantifying their ability to form mineralized bone matrix. This is done by demineralizing the formed bone matrix, and determining the amount of calcium released. Thus, this culture system fulfills requirements of an in vitro model useful for studying the bone formation activity of mature osteoblasts. […] At the end of the culture, the amount of calcium deposited during the culture period was determined, and the amount of bone formation (calcium deposition) calculated. […] Extracts of 50 μl were complexed with 1 ml determined o-cresol-phthalein-complexon. The colorimetric reaction was determined at 570 nm in a spectrophotometer. Absolute calcium concentrations were determined by comparison with a calibrated standard provided by the vendor. In this study, the effect of lanthanum carbonate on bone formation was tested. […] The amount of bone formation was determined by measuring the amount of calcium deposited into bone nodules formed by mature osteoblasts. The results are shown as the amount of calcium released (mmol/L) from the bone nodules after HCl extraction. The baseline values are too low to show the results using relative amounts as was done in the other assays.

[2] = preliminary bone formation assay

SMILES | Relative medium CrossLaps amounts per osteoclast, replicates 1-6 [1] | Relative medium CrossLaps amounts per osteoclast, Mean ± SD [1] | Relative medium CrossLaps amounts per osteoclasts, Mean ± SD [1] | Relative medium CrossLaps amounts per osteoclasts, replicates 1-6 [1] | Combined results on bone resorption (relative medium CrossLaps per osteoclast), Mean ± SD [1] | Effect on bone formation activity of mature osteoblasts, in words (mature osteoblasts) | Calcium deposition, Mean ± SD (mature osteoblasts; first bone formation assay) [mmol/L] | Calcium deposition, replicates 1-6 (mature osteoblasts; first bone formation assay) | Calcium deposition, Mean ± SD (mature osteoblasts; [2]) [mmol/L] | Calcium deposition, replicates 1-4 (mature osteoblasts; [2]) | Calcium deposition, Mean ± SD (mature osteoblasts; second bone formation assay) | Calcium deposition, replicates 1-8 (mature osteoblasts; second bone formation assay) | Combined results on bone formation activity of mature osteoblasts (calcium released), Mean ± SD (mature osteoblasts) [mmol/L] | also measured
O.O.O.O.O=C([O-])[O-].O=C([O-])[O-].O=C([O-])[O-].[La+3].[La+3] [LA, lanthanum carbonate tetrahydrate] | – | – | – | – | – | – | – | – | – | – | – | – | – | Effect on amount of CrossLaps released into the culture medium or on the osteoclast number, in words ([1]; 100-15000 ng/ml lanthanum): no significant effect; Bone resorption ([1]; Dose 100 ng/ml): 0; Bone resorption ([1]; Dose 500 ng/ml): 0; Bone resorption ([1]; Dose 1000 ng/ml): 0; Bone resorption ([1]; Dose 5000 ng/ml): 0; Bone resorption ([1]; Dose 15000 ng/ml): 0; Effect on bone resorption / bone resorbing activity of mature osteoclasts, in words ([1]; listed as lanthanum): Some inhibition of bone resorption; Effect on bone resorption / bone resorbing activity of mature osteoclasts, in words ([1]; listed as lanthanum (III) ion): no statistically significant effects; Bone formation (mature osteoblasts; Dose 100 ng/ml): ++ (two characters (++ or −−) a p-value between 0.01 and 0.001); Bone formation (mature osteoblasts; Dose 500 ng/ml): +++ (three characters (+++ or −−−) a p-value <0.001); Bone formation (mature osteoblasts; Dose 1000 ng/ml): +++ (three characters (+++ or −−−) a p-value <0.001); Bone formation (mature osteoblasts; Dose 5000 ng/ml): +++ (three characters (+++ or −−−) a p-value <0.001); Bone formation (mature osteoblasts; Dose 15000 ng/ml): +++ (three characters (+++ or −−−) a p-value <0.001); Effect on bone formation activity of mature osteoblasts, in words (mature osteoblasts; listed as lanthanum (III)): Enhanced bone formation; Effect on bone formation activity of mature osteoblasts, in words (mature osteoblasts; listed as lanthanum (III) ion): highly significant activation; also recorded: powerful stimulator of the bone formation activity of mature osteoblasts
O.O.O.O.O=C([O-])[O-].O=C([O-])[O-].O=C([O-])[O-].[La+3].[La+3] [LA 15000, lanthanum carbonate tetrahydrate] | 0.57 (2×) and 0.58 and 0.96 and 2.53 and 1.11 | 1.05 ± 0.76 | 0.63 ± 0.29 | 0.29 and 1.08 and 0.62 and 0.87 and 0.47 and 0.45 | 0.84 ± 0.59 | best responses | 1.29 ± 0.21 | 1.46 mmol/L and 1.42 mmol/L and 1.56 mmol/L and 1.11 mmol/L (2×) and 1.08 mmol/L | 0.89 ± 0.66 | 1.48 mmol/L and 0.16 mmol/L and 0.50 mmol/L and 1.41 mmol/L | 1.40 ± 0.21(* mmol/L | 1.62 mmol/L and 1.18 mmol/L and 1.21 mmol/L | 1.35 ± 0.21 | Effect on bone resorption / bone resorbing activity of mature osteoclasts, in words [1]: slight decrease
O.O.O.O.O=C([O-])[O-].O=C([O-])[O-].O=C([O-])[O-].[La+3].[La+3] [LA 5000, lanthanum carbonate tetrahydrate] | 1.39 and 0.78 and 2.70 and 1.18 and 0.76 and 1.21 | 1.34 ± 0.71 | 1.20 ± 0.59 | 0.48 and 1.18 and 0.77 and 0.98 and 1.99 and 1.81 | 1.27 ± 0.63 | best responses | 1.46 ± 0.10 | 1.31 mmol/L and 1.55 mmol/L and 1.56 mmol/L and 1.52 mmol/L and 1.40 mmol/L and 1.39 mmol/L | 1.06 ± 0.66 | 0.59 mmol/L and 1.64 mmol/L and 0.39 mmol/L and 1.62 mmol/L | 1.47 ± 0.20(* mmol/L | 1.08 mmol/L and 1.63 mmol/L and 1.30 mmol/L | 1.47 ± 0.16 | –
